Data on two compounds can be found in patent US20060142356A1, “Novel therapeutic method and compositions for topical administration” (priority 2003, published 2006).

Read-outs that look alike come from different tables or passages of the source.

What is called clearance is the rate of elimination divided by the concentration.

Data set [1] in a line: Peak plasma concentration after oral dosing of farglitazar. In kind it is in vivo, human. An excerpt:
Z is expressed in units of ng/ml and is the target local free (i.e. unbound) concentration that is expected to have a therapeutic effect against the skin condition. In the case of PPAR gamma agonists, Z should correspond to the peak plasma free drug concentration generated by dosing these drugs orally to treat effectively Type II diabetes mellitus. The appropriate value of Z may be determined experimentally in vivo by conventional known means using standard protocols.
The value Z for farglitazar is 0.31 ng/ml [Peak plasma concentration for a 5 mg dose is about 157 ng/ml; 0.31 is 157*(100-99.8)/100].

A short description of the next data set: Plasma bound fraction. In kind it is in vitro ADME. From the text: PBF is the plasma bound fraction. Plasma bound fraction may be determined experimentally in vitro by conventional known means using standard tests (preferably a method employing equilibrium dialysis).
Data set [2] is described as follows: Rate of clearance of the drug substance (total systemic clearance). In kind it is in vivo. The note with it: human, plasma; in adults. From the text: C is expressed in units of ml/hr and is the rate of clearance of the drug substance. Clearance may be determined experimentally in vivo by conventional known means using standard tests. For example it can be determined from the plasma concentration in response to a defined input of drug using the equation given below: Clearance (ml/hr)=Input rate (ng/hr)/Total plasma concentration (ng/ml)

The test system of data set [3] is fasting plasma glucose in patients with type II diabetes. The note with it: cited from earlier work.

`Cc1oc(-c2ccccc2)nc1CCOc1ccc(C[C@H](Nc2ccccc2C(=O)c2ccccc2)C(=O)O)cc1` [farglitazar, N-(2-benzoylphenyl)-O-[2-(5-methyl-2-phenyl-4-oxazolyl)ethyl]-L-tyrosine]: the Peak plasma concentration result in data set [1] (5 mg dose, total drug) is “about 157 ng/ml”. Also, in data set [1] (157*(100-99.8)/100, 5 mg dose), the “Z, target local free (unbound) concentration = peak plasma free drug concentration” value came to 0.31 ng/mL. Also, in the data set “Plasma bound fraction”, the Plasma bound fraction is on record as 99.8%. For the same compound, in data set [2], the clearance is 250 mL/min.

In the case of `CN(CCOc1ccc(CC2SC(=O)NC2=O)cc1)c1ccccn1` (stereo not drawn) [rosiglitazone, 5-[4-[2-(N-methyl-N-(2-pyridyl)amino)ethoxy]benzyl]thiazolidine-2,4-dione], the “Time to achieve a reduction of fasting plasma glucose by 2 mmol/l” value was “about 8 weeks” in data set [3] (2 mg b.i.d. dosage regimen) and “about 4 weeks” in data set [3] (4 mg b.i.d. dosage regimen).
